Source: publication PMC4840931 (Clinical cancer research : an official journal of the …, 2015)
Read-outs that look alike come from different tables or passages of the source.

Legend:
[1] = cited from earlier work
[2] = test system: patients with advanced solid tumors; assay type: in vivo

SMILES: COc1cc2nccc(Oc3ccc(NC(=O)NC4CC4)c(Cl)c3)c2cc1C(N)=O [lenvatinib]
- Effect of co-administration of CYP3A4 inhibitors and inducers on exposure [1]: neither affected
- Study drug–related TEAE, Hypertension, CTCAE grade 3 ([2]; Entire Study Population (N=77)): 13 (16.9) n (%)
- Study drug–related TEAE, Hypertension, CTCAE grade 3+4 ([2]; Entire Study Population (N=77)): 13 (16.9) n (%)
- Study drug–related TEAE, Diarrhea, Total ([2]; Melanoma Expansion Cohort 10.0 mg bid (n=26)): 8 (30.8) n (%)
- Died during therapy or within 30 days of the last treatment ([2]; expanded melanoma cohort (n=26)): 30.8%
- Grade 3 study drug–related toxicity: body weight reduction ([2]; human, in vivo): 8%
- Grade 3 study drug–related toxicity: diarrhea ([2]; human, in vivo): 5%
- Grade 3 study drug–related toxicity: fatigue ([2]; human, in vivo): 7%
- Grade 3 study drug–related toxicity: hypertension ([2]; human, in vivo): 17%
- Grade 3 study drug–related toxicity: proteinuria ([2]; human, in vivo): 5%
- Grade 4 proteinuria, treatment-related ([2]; human, in vivo): 1 event
- Grade 4 reversible posterior leukoencephalopathy syndrome, treatment-related ([2]; human, in vivo): 1 event
- Grade 4 thrombocytopenia, treatment-related ([2]; human, in vivo): 1 event
- Grade 4 thrombotic thrombocytopenic purpura, treatment-related ([2]; human, in vivo): 1 event
- Study drug–related TEAE, Anorexia, CTCAE grade 1 ([2]; human, in vivo): 8 (10.4) n (%)
- Study drug–related TEAE, Anorexia, CTCAE grade 2 ([2]; human, in vivo): 11 (14.3) n (%)
- Study drug–related TEAE, Anorexia, CTCAE grade 3 ([2]; human, in vivo): 0 n (%)
- Study drug–related TEAE, Anorexia, CTCAE grade 3+4 ([2]; human, in vivo): 0 n (%)
- Study drug–related TEAE, Anorexia, CTCAE grade 4 ([2]; human, in vivo): 0 n (%)
- Study drug–related TEAE, Anorexia, Total ([2]; human, in vivo): 19 (24.7) n (%)
- Study drug–related TEAE, Any AE, CTCAE grade 1 ([2]; human, in vivo): 6 (7.8) n (%)
- Study drug–related TEAE, Any AE, CTCAE grade 2 ([2]; human, in vivo): 30 (39.0) n (%)
- Study drug–related TEAE, Any AE, CTCAE grade 3 ([2]; human, in vivo): 28 (36.4) n (%)
- Study drug–related TEAE, Any AE, CTCAE grade 3+4 ([2]; human, in vivo): 32 (41.6) n (%)
- Study drug–related TEAE, Any AE, CTCAE grade 4 ([2]; human, in vivo): 4 (5.2) n (%)
- Study drug–related TEAE, Any AE, Total ([2]; human, in vivo): 68 (88.3) n (%)
- Study drug–related TEAE, Diarrhea, CTCAE grade 1 ([2]; human, in vivo): 7 (9.1) n (%)
- Study drug–related TEAE, Diarrhea, CTCAE grade 2 ([2]; human, in vivo): 6 (7.8) n (%)
- Study drug–related TEAE, Diarrhea, CTCAE grade 3 ([2]; human, in vivo): 4 (5.2) n (%)
- Study drug–related TEAE, Diarrhea, CTCAE grade 3+4 ([2]; human, in vivo): 4 (5.2) n (%)
- Study drug–related TEAE, Diarrhea, CTCAE grade 4 ([2]; human, in vivo): 0 n (%)
- Study drug–related TEAE, Diarrhea, Total ([2]; human, in vivo): 17 (22.1) n (%)
- Study drug–related TEAE, Fatigue, CTCAE grade 1 ([2]; human, in vivo): 10 (13.0) n (%)
- Study drug–related TEAE, Fatigue, CTCAE grade 2 ([2]; human, in vivo): 17 (22.1) n (%)
- Study drug–related TEAE, Fatigue, CTCAE grade 3 ([2]; human, in vivo): 5 (6.5) n (%)
- Study drug–related TEAE, Fatigue, CTCAE grade 3+4 ([2]; human, in vivo): 5 (6.5) n (%)
- Study drug–related TEAE, Fatigue, CTCAE grade 4 ([2]; human, in vivo): 0 n (%)
- Study drug–related TEAE, Fatigue, Total ([2]; human, in vivo): 32 (41.6) n (%)
- Study drug–related TEAE, Hypertension, CTCAE grade 1 ([2]; human, in vivo): 2 (2.6) n (%)
- Study drug–related TEAE, Hypertension, CTCAE grade 2 ([2]; human, in vivo): 18 (23.4) n (%)
- Study drug–related TEAE, Hypertension, CTCAE grade 4 ([2]; human, in vivo): 0 n (%)
- Study drug–related TEAE, Hypertension, Total ([2]; human, in vivo): 33 (42.9) n (%)
- Study drug–related TEAE, Nausea, CTCAE grade 1 ([2]; human, in vivo): 9 (11.7) n (%)
- Study drug–related TEAE, Nausea, CTCAE grade 2 ([2]; human, in vivo): 8 (10.4) n (%)
- Study drug–related TEAE, Nausea, CTCAE grade 3 ([2]; human, in vivo): 2 (2.6) n (%)
- Study drug–related TEAE, Nausea, CTCAE grade 3+4 ([2]; human, in vivo): 2 (2.6) n (%)
- Study drug–related TEAE, Nausea, CTCAE grade 4 ([2]; human, in vivo): 0 n (%)
- Study drug–related TEAE, Nausea, Total ([2]; human, in vivo): 19 (24.7) n (%)
- Study drug–related TEAE, Proteinuria, CTCAE grade 1 ([2]; human, in vivo): 7 (9.1) n (%)
- Study drug–related TEAE, Proteinuria, CTCAE grade 2 ([2]; human, in vivo): 18 (23.4) n (%)
- Study drug–related TEAE, Proteinuria, CTCAE grade 3 ([2]; human, in vivo): 4 (5.2) n (%)
- Study drug–related TEAE, Proteinuria, CTCAE grade 3+4 ([2]; human, in vivo): 5 (6.5) n (%)
- Study drug–related TEAE, Proteinuria, CTCAE grade 4 ([2]; human, in vivo): 1 (1.3) n (%)
- Study drug–related TEAE, Proteinuria, Total ([2]; human, in vivo): 30 (39.0) n (%)
- Study drug–related TEAE, Weight decreased, CTCAE grade 1 ([2]; human, in vivo): 6 (7.8) n (%)
- Study drug–related TEAE, Weight decreased, CTCAE grade 2 ([2]; human, in vivo): 7 (9.1) n (%)
- Study drug–related TEAE, Weight decreased, CTCAE grade 3 ([2]; human, in vivo): 6 (7.8) n (%)
- Study drug–related TEAE, Weight decreased, CTCAE grade 3+4 ([2]; human, in vivo): 6 (7.8) n (%)
- Study drug–related TEAE, Weight decreased, CTCAE grade 4 ([2]; human, in vivo): 0 n (%)
- Study drug–related TEAE, Weight decreased, Total ([2]; human, in vivo): 19 (24.7) n (%)
- Study drug–related toxicity: diarrhea ([2]; human, in vivo): 22%
- Study drug–related toxicity: fatigue ([2]; human, in vivo): 42%
- Study drug–related toxicity: hypertension ([2]; human, in vivo): 43%
- Study drug–related toxicity: nausea ([2]; human, in vivo): 25%
- Study drug–related toxicity: proteinuria ([2]; human, in vivo): 39%
- Dose-limiting toxicities ([2]; in vivo): no DLTs
- Died during therapy or within 30 days of the last treatment ([2]; overall population n=77): 16.9%
- Maximum tolerated dose (MTD) ([2]; po bid, continuous dosing, 28-day cycles): 10 mg
